Laboratory results taken from PMC7793531 (International Journal of Molecular Sciences, 2020).
“Also recorded” adds a separate entry of the source. Starred links: 1 amine or outer side, 2 acyl side, 3 side chain; linkers in the order of their positions; H or OH if unused. Non-standard residues stand in square brackets, D forms with d. Residues, ends and D or L forms follow the SMILES beside them. Groups on a side chain read outwards from the residue. ξ: configuration not given here. *: point of attachment. Oic(3aξ,7aξ) = O=C(O)[C@@H]1CC2CCCCC2N1; hArg = N=C(N)NCCCC[C@H](N)C(=O)O; X1 = N=C(N)NCCCC[C@H](N)CN*; X3 = N=C(N)NCCC[C@H](N)CN*; X2 = N=C(N)NCC[C@H](N)CN*; Orn = NCCC[C@H](N)C(=O)O; Dab = NCC[C@H](N)C(=O)O; CO = O=C([*:1])[*:2]

Experiments:
[1] = target: T1, VEGF-A165/NRP-1 complex (Homo sapiens, UniProt O14786); test: Competitive ELISA-like assay, inhibition of bt-VEGF-A165 binding to immobilized NRP-1; settings: recombinant human NRP-1, bt-VEGF-A165, chemiluminescence; read-out: IC50, VEGF-A165/NRP-1 complex inhibitory effect
T1 construct: purchased R&D Systems
T1 sequence (O14786 22-641 limits assumed): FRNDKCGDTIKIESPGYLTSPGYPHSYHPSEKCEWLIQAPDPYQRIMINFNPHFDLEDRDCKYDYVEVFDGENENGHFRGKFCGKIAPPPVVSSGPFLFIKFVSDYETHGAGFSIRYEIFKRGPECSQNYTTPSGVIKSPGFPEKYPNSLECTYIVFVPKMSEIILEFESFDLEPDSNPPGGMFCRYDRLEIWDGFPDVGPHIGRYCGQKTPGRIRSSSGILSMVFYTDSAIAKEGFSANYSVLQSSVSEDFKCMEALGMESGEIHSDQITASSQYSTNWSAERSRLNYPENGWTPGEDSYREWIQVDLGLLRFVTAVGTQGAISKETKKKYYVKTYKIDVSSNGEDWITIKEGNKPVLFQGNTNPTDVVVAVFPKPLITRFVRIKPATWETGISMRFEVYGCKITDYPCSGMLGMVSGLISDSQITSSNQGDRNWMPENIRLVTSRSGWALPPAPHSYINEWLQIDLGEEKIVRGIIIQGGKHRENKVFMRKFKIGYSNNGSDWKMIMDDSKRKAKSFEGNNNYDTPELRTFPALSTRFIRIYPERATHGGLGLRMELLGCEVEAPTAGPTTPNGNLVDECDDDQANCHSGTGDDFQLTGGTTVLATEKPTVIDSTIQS
Description: Inhibitory activity of urea–peptide hybrids against VEGF-A165/NRP-1 complex formation was assessed with a screening ELISA-like assay. NRP-1 was immobilized on microplate wells by simple adsorption and urea–peptide hybrids competed for NRP-1 with biotinylated VEGF-A165 (bt-VEGF-A165). The amount of receptor bound bt-VEGF-A165 was visualized by its interaction with the streptavidin–horseradish peroxidase conjugate (strep-HRP) and the chemiluminescent substrate. The first analyzed group of compounds were analogues 1–3 with the urea bond between L1 and L2. […] The best hybrid in this group was compound 3, which had Lys^U (gDab) branching (where “g” corresponds to guanidinium group), but its IC50 value decreased only 2-fold. Therefore, we assume that no additional interactions between urea bond and the surface of the protein occurred. […] In the case of urea–peptide hybrids, the urea bond might be capable of forming additional hydrogen bonds with protein residues on the surface of NRP-1. The affinity of compounds may conceivably be affected by the colocation of the urea bond and the free amino group of hArg in the branching. In addition, for compounds 4–6, we can observe that decreasing the distance between the free amino group in the main chain and the urea bond in the branching has a positive effect on compounds’ affinity for NRP-1.
This method was previously described for NRP-1 [44, 45, 46]. Briefly, overnight coating at 4 °C of the flat bottom surface of a 96-well plate with 100 μL (200 ng/well) recombinant human NRP-1, NRP-2, VEGFR-1 or VEGFR-2 was followed by non-specific interactions blocking using 0.5% bovine serum albumin (BSA) in PBS. Next, 50 µL of urea–peptide hybrid in PBS and 50 µL (400 ng/mL) of human (bt)-VEGF-A165 in PBS containing 4 µg/mL of heparin were added respectively. Plates were incubated for 2 h at RT, and then washed and treated with streptavidin-horseradish peroxidase conjugate in PBS (1:8000). Next, 100 µL chemiluminescent substrate was added, and luminescence was quantified using Tecan Infinite F200Pro microplate reader (Männedorf, Switzerland). In a positive control (P) only (bt)-VEGF-A165 was present in wells. Not coated by receptor wells were treated as a negative control (N). Percentages of inhibition were calculated by the following formula:100% − [[(S − N)/(P − N)]∙100%](1) where S is the signal intensity measured in wells with urea–peptide hybrid. The IC50 of each urea–peptide hybrid was calculated using the nonlinear regression function with GraphPad Prism Version-5.01 (GraphPad Software, San Diego, CA, USA). Data are presented as log (inhibitor) versus normalized response-variable slope (Figure S16). Data are the means ± SEMs of two or three independent experiments, each performed in triplicate.

[2] = In vitro enzymatic stability in human blood serum (LC-SWATH-MS); assay type: in vitro ADME; settings: human blood serum (pooled from four healthy persons), 37 °C
Description: Rapid renal clearance and enzymatic degradation are classified as most important disadvantages of peptides as drugs. Covalent linkage to plasma proteins or chemical modifications, including amide bond modifications, might improve their half-lives. We performed proteolytic stability studies in human blood serum to investigate whether the introduction of urea bonds affected the half-lives of compounds from each of synthesized group of hybrids. Compounds 3, 6 and 7 were incubated with human serum at 37 °C. Samples were taken at different time intervals and analyzed using LC-SWATH-MS [88, 89, 90]. […] Hybrids 6 and 7 were stable toward enzymatic degradation, with 50% of each compound still being intact after 96 h (Figure 5). […] Overall, it can be concluded that the substitution of an amide bond with a urea bond has a positive effect on the proteolytic stability of the examined inhibitors.
The study was conducted in full accordance with ethical principles in accordance with the ICH E6 (R2) Guideline for Good Clinical Practice and the Code of Good Customs in Science developed by the Polish Academy of Sciences. Signed consent for using serum was obtained from volunteers. The Rector’s Commission for Ethics of Scientific Research with Human Participation, University of Warsaw, Warsaw, Poland gave the ethical approval (approval number 51/2020). Human blood from four healthy persons was directly drawn into evacuated tubes and left undisturbed at room temperature for 1 h to clot. Tubes were centrifuged at 2500× g for 10 min to prevent possible platelet activation. Serum was pipetted out of the blood collection tubes, pooled and collected in microtubes.
A degradation assay was adapted from a method described previously. Human blood serum was preactivated in Eppendorf ThermoMixer® Comfort (Hamburg, Germany) at 37 °C for 20 min (350 rpm). Next, 20 μL of aqueous urea–peptide hybrid stock solution was added to give ∼750 μg/mL final compound concentration, and incubation was continued. At selected time intervals, 50 μL of the mixture was collected and quenched by adding 200 μL of ACN:H2O:FA mixture (89:10:1, v:v:v). The obtained suspension was vortexed for 1 min (3000 min^−1) and centrifuged for 10 min in 4 °C (11,000× g). 100 μL of supernatant was collected and lyophilized. The samples reconstituted in 1 mL of 10 mM ammonium formate with 0.1% FA were subjected to LC-MS. Relative concentration at time intervals was calculated using peak area of either individual or most intense fragment of compound of interest. Analyst software version 1.7.1 was used for data acquisition, Peak View 2.2 and MultiQuant 2.1 (Sciex, ON) were used for data processing. Detailed analytical data can be found in Supplementary Materials (Figures S17–S45). […]

[3] = Human blood serum; settings: 37 °C, up to 96 h

IC50 [1] [nM] | Compound | cleaved bond [3] | other results
1800 | N=C(N)NCCCC[C@H](N)C(=O)NCC[C@H](N)CNC(=O)N[C@@H](CCN)C(=O)N1C2CCCCC2C[C@H]1C(=O)N[C@@H](CCCNC(=N)N)C(=O)O (some centres unmarked) [Compound 1] | – | –
2100 | N=C(N)NCCC[C@H](NC(=O)[C@@H]1CC2CCCCC2N1C(=O)[C@H](CCN)NC(=O)NC[C@@H](N)CCCNC(=O)[C@@H](N)CCCNC(=N)N)C(=O)O (some centres unmarked) [Compound 2] | – | –
1200 | N=C(N)NCCC[C@H](NC(=O)[C@@H]1CC2CCCCC2N1C(=O)[C@H](CCN)NC(=O)NC[C@@H](N)CCCCNC(=O)[C@@H](N)CCNC(=N)N)C(=O)O (some centres unmarked) [Compound 3] | – | remaining at 24 h ([2]; after 24 h, read-out: initial substrate concentration remaining): ~25%
490 | N=C(N)NCCC[C@H](NC(=O)[C@@H]1CC2CCCCC2N1C(=O)[C@H](CCN)NC(=O)[C@@H](N)CCCCNC(=O)NC[C@@H](N)CCNC(=N)N)C(=O)O (some centres unmarked) [Compound 4] (H-K([CO-X2])[Dab][Oic(3aξ,7aξ)]R-OH) | – | –
360 | N=C(N)NCCC[C@H](N)CNC(=O)NCCC[C@H](N)C(=O)N[C@@H](CCN)C(=O)N1C2CCCCC2C[C@H]1C(=O)N[C@@H](CCCNC(=N)N)C(=O)O (some centres unmarked) [Compound 5] (H-[Orn]([CO-X3])[Dab][Oic(3aξ,7aξ)]R-OH) | – | –
2100 | N=C(N)NCCC[C@H](N)CNC(=O)NC[C@H](N)CNC(=O)N[C@@H](CCN)C(=O)N1C2CCCCC2C[C@H]1C(=O)N[C@@H](CCCNC(=N)N)C(=O)O (some centres unmarked) [Compound 7] | – | remaining at 96 h ([2]; after 96 h, read-out: compound still intact): 50%
2100 | N=C(N)NCCC[C@H](NC(=O)[C@@H]1CC2CCCCC2N1C(=O)[C@H](CCN)NC(=O)NC[C@@H](N)CCNC(=O)NC[C@@H](N)CCNC(=N)N)C(=O)O (some centres unmarked) [Compound 8] | – | –
1800 | N=C(N)NCCC[C@H](NC(=O)[C@@H]1CC2CCCCC2N1C(=O)[C@H](CCN)NC(=O)NC[C@@H](N)CCCNC(=O)NC[C@@H](N)CNC(=N)N)C(=O)O (some centres unmarked) [Compound 9] | – | –
– | H2N-DapU(ArgU)-Dab-Oic-Arg-OH | OicL3-ArgL4 | not cleaved [3]: urea bonds remained intact within the monitored time of the experiment
– | H2N-LysU(gDab)-Dab-Oic-Arg-OH | gDabL1'-Lys^UL1; also recorded: OicL3-ArgL4 | fragment found [3]: C25H49N10O5+ (RT 5.43 min); not cleaved [3]: urea bonds remained intact within the monitored time of the experiment
– | H-Dab(hArg^U)Dab-Oic-Arg-OH (H-[Dab]([CO-X1])[Dab][Oic(3aξ,7aξ)]R-OH; SMILES N=C(N)NCCCC[C@H](N)CNC(=O)NCC[C@H](N)C(=O)N[C@@H](CCN)C(=O)N1C2CCCCC2C[C@H]1C(=O)N[C@@H](CCCNC(=N)N)C(=O)O) | OicL3-ArgL4; also recorded: DabL1-DabL2 | fragment found [3]: C25H49N10O5+ (RT 5.36/5.72 min); also recorded: C25H46N10O4+ (RT 6.44/6.64 min); also recorded: C19H36N7O4+ (RT 3.53 min); also recorded: C12H27N7O3+ (RT 1.21 min); not cleaved [3]: urea bonds remained intact within the monitored time of the experiment
– | Lys(hArg)-Dab-Oic-Arg (H-K(hArg)[Dab][Oic(3aξ,7aξ)]R-OH) | hArgL1'-LysL1, major; also recorded: LysL1-DabL2; also recorded: OicL3-ArgL4 | fragment found [3]: C25H48N9O5+ (RT 2.87 min); also recorded: C19H36N7O4+ (RT 3.54 min)
